The values below come from US20220202912A1, “Polypeptides in Preparation of Drugs for Treatment or Prevention of Rheumatoid Arthritis” (priority 2011, published 2022).

In one data set the test system is human U937 cells. Description: human whole genome array of U937-derived macrophages. Format: cell-based. Particulars: 13.5 μmol/L, 48 h. As for the experimental part: 1.1.1 U937 cells are cultured in a 6-well plate at 3×10^6 cells/mL per well overnight, and PMA (25 ng/mL) is added on the next day for induction for 48 h. After the cells adhere, cultured supernatant is pipetted away. The cells are treated with mPEG-SC20k-HM-3 (test group) or a medium (negative control group) at 13.5 μmol/L at 37° C. for 48 h.
1.1.2 1×10^6 cells are taken from each of two groups of samples, and the solution has […], and is centrifuged for 5 min. The supernatant is removed. 1 mL of TRIZOL lysis solution is added and mixed uniformly, and the solution stands at room temperature for 5 min.
1.2 DNase I digest the RNA sample to remove any genomic DNA that may be contained therein. […]
1.8.2 Sample adding: An membrane on the PCR Array is opened, 10 μL of mixture is added to each well corresponding to the PCR Array, and a lid is closed to seal the PCR Array; after a real-time quantitative PCR program is set, the PCR Array is placed on the real-time quantitative PCR instrument for PCR reaction, and the prepared PCR Array is placed on ice before the PCR program is set. […]
1.9.3 2^−ΔΔCt values of the test group and the control group are calculated to analyze the difference in expression of the corresponding genes between the test group and the control group. […]

The subject of data set [1] is tumor in BALB/c nude mice. Description: in vivo pharmacodynamics (antitumor) of PEG-modified HM-3 in BALB/c nude mice. An excerpt: Four different types of mPEG-ALD and mPEG-SC with different molecular weights are selected to modify the polypeptide […](named HM-3), i.e., mPEG-ALD5k, mPEG-ALD10k, mPEG-SC10k, mPEG-SC20k, and modification reaction conditions are explored and optimized.

For the next data set, the system named is TLR-4. Description: Western blot of TLR-4 protein in LPS-induced rat synovial cells. Format: cell-based. As for the experimental part:
3.1 U937 cells are added to a 6-well plate (1.5×10^5 cells/mL), PMA (25 ng/mL) is used for induction for 48 h, and the cells adhere and differentiate into macrophages. Positive drug Adalimumab (25 μg/mL, 50 μg/mL, 100 μg/mL, 200 μg/mL, 400 μg/mL), Avastin (25 μg/mL, 50 μg/mL) are added, the final concentrations of mPEG-SC20k-HM-3 are 2.25, 4.5, 9.0, 13.5, 18.0, 36 μmol/L, and isovolumetric PBS is added to the blank group and the model group. The cells are incubated in a CO2 incubator at 37° C. for 24 or 48 h. Rat synovial cells are induced with LPS for 24 h and then mPEG-SC20k-HM-3 is administrated to final concentrations of 2.25, 4.5, 9.0, 13.5, 18.0 μmol/L, and the cells are incubated in a CO2 incubator at 37° C. for 48 h.
3.3 A protein extract solution is added at 20 μL/1×10^5 cells, and the cells are pipetted and dispersed, and stand at 4° C. for 30 min to lyse the cells.
3.4 1/4 volume of 5×protein loading buffer is added, and boiling water bath is performed for 5-10 min.
3.5 20 μL of protein sample is taken and 10% SDS-PAGE electrophoresis is performed.
3.6 The protein on the gel is transferred to the PVDF membrane by using a wetting transfer method with a constant current of 100 mA for 1-2.5 h.
3.7 The PVDF membrane is blocked with a blocking solution at room temperature for 2 h.
3.8 The membrane is washed for 3 times with PBST, 5 min each time. […]

Where no end group is shown, it is not given here.

In the case of “mPEG-SC20k-Ile-Val-Arg-Arg-Ala-Asp-Arg-Ala-Ala-Val-Pro-Gly-Gly-Gly-Gly-Arg-Gly-Asp ({mPEG‑SC 20k}-IVRRADRAAVPGGGGRGD) [polypeptide III, No. 3]”, in the data set on human U937 cells, the “number of related factors down-regulated at the mRNA level” value is listed as 538 and the “number of related factors up-regulated at the mRNA level” value stood at 499. In data set [1] (BALB/c nude mice), the “antitumor effect in vivo” value worked out at 50.23%. Besides, in data set [1] (body weight of nude mice basically stable), the “toxicity at an effective dose in vivo” value is reported as “very low toxicity or no toxicity”. Besides, the “elimination half life in vivo” value in data set [1] (compared with HM-3) is “greatly improved”. Further, in the data set on TLR-4, the “dose with the best inhibitory effect on the expression of TLR-4 protein” value is 13.5 µM. In addition, the “expression of TLR-4 protein in rat synovial cells” value with TLR-4 (with the increase of dosage) was “down-regulation”.
